The half-life is how long it takes for the measured level to halve. What is called bioavailability is the share of a dose that reaches the circulation, judged against a reference dose that is usually intravenous.

We go through four compounds from patent US20050089558A1 (Alamo Pharmaceuticals, LLC, priority 2003, published 2005).

One data set has as its target mu receptors of the CNS (Homo sapiens, UniProt P35372). The note with it: relative to morphine; cited from earlier work.
The subject of another data set is opioid receptors. The note with it: in words; cited from earlier work.
In data set [1] the test system is abdominal muscle contractions (writhing) induced by 0.6% acetic acid. In words: acetic acid writhing test of analgesia in mice. The data set is classed as in vivo, Crl:CFW (SW) BR mice. The following applies: 0.6% acetic acid i.p. 30 min later, male mice; for Ave. # of writhes: 15-minute count. The method, then: In the animal studies presented in Examples 5-7, tramadol and dextro-propoxyphene were administered neat (undiluted), or were diluted with diluted with saline (i.e. 0.9% Sodium Chloride for injection) in order to achieve the desired dose volumes. Fresh solutions were prepared for each concentration (of each compound) prior to administration.
Acetic acid was used to assess experimental pain or “writhing.” Specifically, thirty minutes after dosing, the writhing-induction agent (0.6% Acetic Acid) was administered to all experimental groups by intraperitoneal injection at a dose volume of 10 mL/kg.
Crl:CFW® (SW) BR mice, from Charles River Laboratories were used as the animal model to test the analgesia of the tramadol/propoxyphene co-formulations. The test animals were approximately 4 weeks of age on arrival and each animals weighed approximately 22 to 28 g within 3 days of arrival. […] Animals considered suitable for study were weighed prior to treatment and randomized, by sex, into treatment groups using a standard, by weight, block randomization procedure.
The protocols employed assessed the qualitative and quantitative changes in abdominal muscle contractions (writhing) induced after the […] administration of a noxious chemical stimulus, 0.6% acetic acid, in mice. The degree and amount of contractile abdominal activity is a measure of “experimentally-induced pain”. A decrease in the amount of writhing with prior administration of a test article is an experimental measure of “analgesia.”
Dose-response functions were generated for each of the two (2) test articles (tramadol, dextro-propoxyphene,). ED50 values for analgesic activity were estimated using a least squares linear regression analysis procedure using PHARM/PCS or SAS.
The test article, positive control, and vehicle were administered to all groups as a single subcutaneous injection in the scapular region on the back at a dose volume of 10 mL/kg and at the dose levels as presented in Table 1 below.
Thirty minutes after dosing, the writhing-induction article, 0.6% acetic acid, was administered to all groups by intraperitoneal injection at a dose volume of 10 mL/kg.
Immediately after administration of the writhing-induction article, animals were placed into a poly-observation chamber and a 15-minute evaluation period was initiated. During the 15-minute evaluation period, the number of “writhes” that occurred were recorded. For scoring purposes, a “writhe” was indicated by whole body stretching or contraction of the abdomen, further described as waves of contraction of the abdominal musculature, twisting and turning of the trunk, and hind-limb extension.
Background: Writhing tests count abdominal constrictions after an irritant is injected.

The conditions of data set [2]: cited from earlier work; for half-life: after a single oral dose of 100 mg tramadol, 2-compartmental elimination; for accumulation: during multiple dose treatment with tramadol.
The conditions of data set [3]: in vivo; cited from earlier work.
For another data set, the system named is NMDA receptor. The note with it: in words, a recent study; cited from earlier work.
For data set [4] the following is noted: in words; cited from earlier work.

Read-outs that look alike come from different tables or passages of the source.

Sequence of mu receptors of the CNS (P35372 whole entry): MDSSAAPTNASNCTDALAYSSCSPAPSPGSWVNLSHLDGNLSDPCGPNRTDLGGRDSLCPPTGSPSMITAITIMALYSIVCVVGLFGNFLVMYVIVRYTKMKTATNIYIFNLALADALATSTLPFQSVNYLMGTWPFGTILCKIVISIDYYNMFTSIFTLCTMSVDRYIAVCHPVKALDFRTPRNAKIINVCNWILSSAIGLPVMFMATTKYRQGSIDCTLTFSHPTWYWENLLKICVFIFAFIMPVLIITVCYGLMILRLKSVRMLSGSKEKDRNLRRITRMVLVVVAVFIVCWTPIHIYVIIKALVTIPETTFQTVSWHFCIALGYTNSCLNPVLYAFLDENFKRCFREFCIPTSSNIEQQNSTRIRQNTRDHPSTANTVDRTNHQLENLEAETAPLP

Consider `COc1cccc([C@]2(O)CCCC[C@H]2CN(C)C)c1` (racemic) [Tramadol, cyclohexanol, 2-((dimethylamino)methyl)-1-(3-methoxyphenyl)-, cis-(+−)-], for which the “affinity for mu receptors of the CNS, times lower than that of morphine” value on mu receptors of the CNS is given as 6000 times. Besides, the “affinity for opioid receptors” value in the data set on opioid receptors is recorded as “low affinity”. In addition, in data set [1] (0.32 mg/kg single s.c. dose), the “Ave. # of writhes” value is listed as 54.6 and the “% Analgesia” value is recorded as −3.21%. Further, in data set [1] (1.0 mg/kg single s.c. dose), the “Ave. # of writhes” value was 55.1 and the “% Analgesia” value is −4.16%. Further, in data set [1] (3.2 mg/kg single s.c. dose), the “Ave. # of writhes” value was determined as 31.7 and the “% Analgesia” value turned out to be 40.08%. Further, in data set [2], the half-life was 5.1 h and the accumulation entry is “approximately 2 fold”. Further, the “duration of the analgesic effect” value in data set [2] (after a single oral dose of tramadol 100 mg) is reported as “about 6 hours”. Besides, in data set [2] (after oral administration), the bioavailability is on record as 68% and the “time to peak serum concentrations” value is at most 2 h. Further, the “time to peak plasma levels” value in data set [2] (following oral administration) is at most 2 h.

As for `CN(C)CC1CCCCC1(O)c1cccc(O)c1` (centres unmarked) [M1 derivative, O-demethyl tramadol], in the data set with opioid receptors, the “affinity for opioid receptors” value is “higher affinity for opioid receptors than the parent drug”. In addition, in data set [2], the half-life was 9 h and the accumulation result is “approximately 2 fold”.

Take `CCC(=O)OC(Cc1ccccc1)(c1ccccc1)C(C)CN(C)C` (stereo not drawn) [Propoxyphene, 2-Butanol, 4-(dimethylamino)-3-methyl-1,2-diphenyl-, propionate, (+)-]: the entries for the “Ave. # of writhes” value in data set [1] (1.0 mg/kg single s.c. dose), in data set [1] (3.2 mg/kg single s.c. dose) and in data set [1] (10.0 mg/kg single s.c. dose) were 59.4, 45.4 and 26.7, respectively. Also, the “% Analgesia” value in data set [1] (1.0 mg/kg single s.c. dose) is −12.29%; in data set [1] (3.2 mg/kg single s.c. dose) it was 14.18%; in data set [1] (10.0 mg/kg single s.c. dose), 49.53%. Moreover, the half-life in data set [3] was 6 to 12 h. For the same compound, the “activity at the NMDA receptor” value in the data set on NMDA receptor was “antagonist activity”.

For the compound `CCC(=O)O[C@](Cc1ccccc1)(c1ccccc1)[C@H](C)CNC` [norpropoxyphene], the analgesic properties entry in data set [4] is recorded as “very weak analgesic properties”.
